The target of assay [1] is T1, human muscarinic M3 receptor (Homo sapiens (Human), UniProt P20309). Kind of assay: Binding assay on human muscarinic M3 receptor ([3H]-methyl scopolamine displacement). The conditions noted are these: membranes overexpressing human M3 receptor, Ki from IC50 by Cheng-Prusoff, read-out: Binding Affinity to M3 Receptor, Ki. In outline: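 Displacement of [3H]-methyl scopolamine from membranes overexpressing human M3, in Tris-HCl, 25 °C, 120 min; filter-bound radioactivity counted. Nonspecific binding with 5 μM atropine; Ki from IC50 via Cheng-Prusoff.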
T1 sequence (P20309 whole entry): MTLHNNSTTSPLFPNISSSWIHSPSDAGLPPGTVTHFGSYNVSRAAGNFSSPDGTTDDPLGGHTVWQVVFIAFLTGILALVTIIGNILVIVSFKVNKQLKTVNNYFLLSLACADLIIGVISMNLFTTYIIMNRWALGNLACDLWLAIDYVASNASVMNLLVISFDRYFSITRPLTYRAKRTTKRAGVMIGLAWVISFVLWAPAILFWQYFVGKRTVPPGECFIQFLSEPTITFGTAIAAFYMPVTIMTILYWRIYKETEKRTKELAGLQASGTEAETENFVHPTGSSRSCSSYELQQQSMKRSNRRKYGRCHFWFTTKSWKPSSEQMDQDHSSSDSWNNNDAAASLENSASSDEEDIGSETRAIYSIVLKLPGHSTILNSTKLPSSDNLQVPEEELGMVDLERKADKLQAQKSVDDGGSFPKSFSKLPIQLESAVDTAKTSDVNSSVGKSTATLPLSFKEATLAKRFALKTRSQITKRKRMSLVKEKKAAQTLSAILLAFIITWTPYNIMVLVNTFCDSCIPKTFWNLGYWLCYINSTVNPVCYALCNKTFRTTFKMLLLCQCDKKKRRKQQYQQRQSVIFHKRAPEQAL

Assay [2] has as its target T1, human muscarinic M3 receptor. In words: Antagonism assay on human muscarinic M3 receptor (carbachol-induced intracellular calcium, FLIPR Calcium 5, transfected Cos-7 cells). The format is cell-based. The conditions noted are these: functional inhibitory constant; carbachol-induced intracellular calcium in Cos-7 cells transfected with human M3 receptor. On the procedure: [Experimental Example 2] Antagonism Assay on Human Muscarinic M3 Receptor
The antagonism assay for various compounds of the present invention was conducted on antagonism to human M3 receptor in Cos-7 cells that was transfected with plasmid coding human muscarinic M3 receptor. Test compounds in various concentrations were pre-treated to the cells for 3 minutes, and then the changes of intracellular calcium were measured after treating the same with carbachol (i.e. muscarinic receptor agonist). The FLIPR® Calcium 5 assay (Molecular Devices) and Flex3 device (Molecular Devices) were used to measure concentration of calcium. Amounts of calcium before and after carbachol treatment were set as 0% and 100% respectively. Inhibition rates (%) by the compounds for increase in intracellular calcium by carbachol were calculated. The antagonistic potency of the test compounds on human muscarinic M3 receptor was calculated as the functional inhibitory constant (Ki), which can be calculated from concentration (IC50) of compound inhibiting 50% of activity of carbachol according to Cheng and Prusoff equation.

Among the data in patent US9828339B2, “Biphenyl derivatives and methods for preparing same” (DONG-A ST CO., LTD, priority 2013, dated 2017) are Ki values, retold here.

SMILES strings stand for the structures.

`CN1CCCC1CCOC(=O)Nc1ccc(F)cc1-c1ccccc1` (centres unmarked) [Example 21, 2-(1-methylpyrrolidin-2-yl)ethyl(5-fluoro-[1,1′-biphenyl]-2-yl)carbamate]: the Ki was determined as 0.00225 µM in assay [1] and 0.00049 µM in assay [2]. `CN1CCCC1CCOC(=O)Nc1ccccc1-c1ccc(F)c(Cl)c1` (centres unmarked) [Example 41, 2-(1-methylpyrrolidin-2-yl)ethyl(3′-chloro-4′-fluoro-[1,1′-biphenyl]-2-yl)carbamate]: the Ki in assay [1] was 0.00245 µM; in assay [2] it was 0.00018 µM. For `CN1CCCC1CCOC(=O)Nc1ccc(F)cc1-c1ccc(F)c(F)c1` (centres unmarked) [Example 42, 2-(1-methylpyrrolidin-2-yl)ethyl(3′,4′,5-trifluoro-[1,1′-biphenyl]-2-yl)carbamate], in that order: 0.00921 µM and 0.00119 µM. As to `CN1CCC[C@H]1COC(=O)Nc1ccccc1-c1cccc(N)c1` [Example 170, (S)-(1-methylpyrrolidin-2-yl)methyl(3′-amino-[1,1′-biphenyl]-2-yl)carbamate], in assay [1], the Ki is 0.00923 µM.

With `CN1CCC[C@H]1COC(=O)Nc1ccc(F)cc1-c1ccc(F)c(F)c1` [Example 171, (S)-(1-methylpyrrolidin-2-yl)methyl (3′,4′,5-trifluoro-[1,1′-biphenyl]-2-yl)carbamate], the Ki in assay [1] stood at 0.0169 µM. As to `CN1CCC[C@H]1COC(=O)Nc1ccc(F)cc1-c1cc(F)c(F)cc1F` [Example 173, (S)-(1-methylpyrrolidin-2-yl)methyl (2′,4′,5,5′-tetrafluoro-[1,1′-biphenyl]-2-yl)carbamate], in assay [1], the Ki turned out to be 0.0427 µM. Same read-out and setting: to `CN1CCC[C@H]1COC(=O)Nc1ccc(F)cc1-c1cccc(Cl)c1` [Example 174, (S)-(1-methylpyrrolidin-2-yl)methyl(3′-chloro-5-fluoro-[1,1′-biphenyl]-2-yl)carbamate] belongs 0.00061 µM.

`CN1CCC[C@H]1COC(=O)Nc1ccc(F)cc1-c1ccc(Cl)cc1` [Example 175, (S)-(1-methylpyrrolidin-2-yl)methyl (4′-chloro-5-fluoro-[1,1′-biphenyl]-2-yl)carbamate]: the Ki in assay [1] was 0.0225 µM.

In the case of `CN1CCC[C@H]1COC(=O)Nc1ccc(F)cc1-c1ccc(Cl)cc1Cl` [Example 176, (S)-(1-methylpyrrolidin-2-yl)methyl (2′,4′-dichloro-5-fluoro-[1,1′-biphenyl]-2-yl)carbamate], the Ki in assay [1] was greater than 1 µM. Same read-out and setting: to `CN1CCC[C@H]1COC(=O)Nc1ccc(F)cc1-c1cccc(C#N)c1` [Example 178, (S)-(1-methylpyrrolidin-2-yl)methyl (3′-cyano-5-fluoro-[1,1′-biphenyl]-2-yl)carbamate] belongs greater than 1 µM. The same measure, in the same setting: under `CN1CCC[C@H]1COC(=O)Nc1ccc(F)cc1-c1cccc(O)c1` [Example 179, (S)-(1-methylpyrrolidin-2-yl)methyl(3′-hydroxy-5-fluoro-[1,1′-biphenyl]-2-yl)carbamate] stands 0.241 µM. On the same count and under the same terms, to `CN1CC[C@@H](COC(=O)Nc2cc(F)c(F)cc2-c2cccc(Cl)c2)C1` [Example 182, (R)-(1-methylpyrrolidin-3-yl)methyl (3′-chloro-4,5-difluoro-[1,1′-biphenyl]-2-yl)carbamate] belongs greater than 1 µM; to `CN1CCCC1CCOC(=O)Nc1ccccc1-c1cccc(F)c1F` (centres unmarked) [Example 184, 2-(1-Methylpyrrolidin-2-yl)ethyl(2′,3′-difluoro-[1,1′-biphenyl]-2-yl)carbamate], 0.0635 µM; to `CN1CCCC1CCOC(=O)Nc1ccccc1-c1c(F)cccc1F` (centres unmarked) [Example 185, 2-(1-Methylpyrrolidin-2-yl)ethyl(2′,6′-difluoro-[1,1′-biphenyl]-2-yl)carbamate], 0.0461 µM. As for `CN1CCC[C@H]1COC(=O)Nc1ccccc1-c1cccc(F)c1F` [Example 189, (S)-(1-methylpyrrolidin-2-yl)methyl(2′,3′-difluoro-[1,1′-biphenyl]-2-yl)carbamate], the Ki in assay [1] was determined as 0.0656 µM. Still for that read-out and setting: to `Cc1cc(C)cc(-c2ccccc2NC(=O)OC[C@@H]2CCN(C)C2)c1` [Example 191, (R)-(1-methylpyrrolidin-3-yl)-methyl (3′,5′-dimethyl-[1,1′-biphenyl]-2-yl)carbamate] belongs 0.0308 µM. Same read-out and setting: to `Cc1cc(C)cc(-c2cc(F)ccc2NC(=O)OC[C@@H]2CCN(C)C2)c1` [Example 193, (R)-(1-methylpyrrolidin-3-yl)methyl(5-fluoro-3′,5′-dimethyl-[1,1′-biphenyl]-2-yl)carbamate] belongs 0.0458 µM. Take `CN1CCC[C@H]1COC(=O)Nc1ccc(F)cc1-c1ccccc1` [Example 200, (S)-(1-methylpyrrolidin-2-yl)methyl(5-fluoro-[1,1′-biphenyl]-2-yl)carbamate]: the inhibition constant (Ki) in assay [1] is 0.00203 µM. With `Cc1ccc(NC(=O)OC[C@@H]2CCCN2C)c(-c2ccccc2)c1` [Example 206, (S)-(1-methylpyrrolidin-2-yl)methyl(5-methyl-[1,1′-biphenyl]-2-yl)carbamate], the inhibition constant Ki in assay [1] was 0.00732 µM. Still for that read-out and setting: under `Cc1cc(C)cc(-c2cc(F)ccc2NC(=O)OC[C@@H]2CCCN2C)c1` [Example 208, (S)-(1-methylpyrrolidin-2-yl)-methyl(5-fluoro-3′,5′-dimethyl-[1,1′-biphenyl]-2-yl)-carbamate] stands 0.11 µM; under `CN1CCC[C@H]1COC(=O)Nc1ccc(F)cc1-c1ccc(C(C)(C)C)cc1` [Example 209, (S)-(1-methylpyrrolidin-2-yl)methyl (4′-(tert-butyl)-5-fluoro-[1,1′-biphenyl]-2-yl)carbamate], greater than 1 µM. Still for that read-out and setting: to `CN1CCC[C@H]1COC(=O)Nc1ccc(F)cc1-c1cc(F)cc(Cl)c1` [Example 210, (S)-(1-methylpyrrolidin-2-yl)methyl(3′-chloro-5,5′-difluoro-[1,1′-biphenyl]-2-yl)carbamate] belongs 0.0046 µM; to `CN1CCC[C@H]1COC(=O)Nc1ccc(F)cc1-c1ccc(Cl)c(F)c1` [Example 212, (S)-(1-methylpyrrolidin-2-yl)methyl(4′-chloro-3′,5-difluoro-[1,1′-biphenyl]-2-yl)carbamate], greater than 1 µM. For `CN1CCC[C@H]1COC(=O)Nc1ccc(F)cc1-c1cccc(N)c1` [Example 213, (S)-(1-methylpyrrolidin-2-yl)methyl (3′-amino-5-fluoro-[1,1′-biphenyl]-2-yl)carbamate], in assay [1], the Ki was 0.053 µM. Regarding `CN1CCC[C@H]1COC(=O)Nc1ccc(F)cc1-c1cccc(C(F)(F)F)c1F` [Example 214, (S)-(1-methylpyrrolidin-2-yl)methyl(2′,5-difluoro-3′-(trifluoromethyl)-[1,1′-biphenyl]-2-yl)carbamate], in assay [1], the Ki is greater than 1 µM. On the same count and under the same terms, under `CN1CCC[C@H]1COC(=O)Nc1ccc(F)cc1-c1cc(Cl)cc(C(F)(F)F)c1` [Example 215, (S)-(1-methylpyrrolidin-2-yl)methyl(3′-chloro-5-fluoro-5′-(trifluoromethyl)-[1,1′-biphenyl]-2-yl)carbamate] stands greater than 1 µM; under `CN1CCC[C@H]1COC(=O)Nc1ccc(F)cc1-c1cc(O)cc(Cl)c1` [Example 216, (S)-(1-methylpyrrolidin-2-yl)methyl(3′-chloro-5-fluoro-5′-hydroxy-[1,1′-biphenyl]-2-yl)carbamate], 0.0601 µM; under `COc1cc(Cl)cc(-c2cc(F)ccc2NC(=O)OC[C@@H]2CCCN2C)c1` [Example 217, (S)-(1-methylpyrrolidin-2-yl)methyl (3′-chloro-5-fluoro-5′-methoxy-[1,1′-biphenyl]-2-yl)carbamate], 0.223 µM. On to `CN1CCC[C@H]1COC(=O)Nc1ccc(F)cc1-c1ccc(C(F)(F)F)cc1C(F)(F)F` [Example 218, (S)-(1-methylpyrrolidin-2-yl)methyl(5-fluoro-2′,4′-bis(trifluoromethyl)-[1,1′-biphenyl]-2-yl)carbamate], for which the Ki in assay [1] was greater than 1 µM.

In the case of `CCOc1cccc(-c2cc(F)ccc2NC(=O)OC[C@@H]2CCCN2C)c1` [Example 219, (S)-(1-methylpyrrolidin-2-yl)methyl(3′-ethoxy-5-fluoro-[1,1′-biphenyl]-2-yl)carbamate], the Ki in assay [1] is greater than 1 µM. Still for that read-out and setting: under `COc1ccc(-c2cc(F)ccc2NC(=O)OC[C@@H]2CCCN2C)cc1OC` [Example 220, (S)-(1-methylpyrrolidin-2-yl)methyl (5-fluoro-3′,4′-dimethoxy-[1,1′-biphenyl]-2-yl)carbamate] stands greater than 1 µM. Regarding `COc1cc(OC)cc(-c2cc(F)ccc2NC(=O)OC[C@@H]2CCCN2C)c1` [Example 221, (S)-(1-methylpyrrolidin-2-yl)methyl(5-fluoro-3′,5′-dimethoxy-[1,1′-biphenyl]-2-yl)carbamate], the Ki in assay [1] is greater than 1 µM.

For the compound `COc1ccc(NC(=O)OC[C@@H]2CCCN2C)c(-c2ccccc2)c1` [Example 222, (S)-(1-methylpyrrolidin-2-yl)methyl(5-methoxy-[1,1′-biphenyl]-2-yl)carbamate], in assay [1], the Ki was determined as 0.0283 µM. On the same count and under the same terms, to `COc1ccc(NC(=O)OC[C@@H]2CCCN2C)c(-c2cccc(F)c2)c1` [Example 223, (S)-(1-methylpyrrolidin-2-yl)methyl(3′-fluoro-5-methoxy-[1,1′-biphenyl]-2-yl)carbamate] belongs 0.121 µM. On the same count and under the same terms, under `COc1ccc(NC(=O)OC[C@@H]2CCCN2C)c(-c2ccc(Cl)c(Cl)c2)c1` [Example 225, (S)-(1-methylpyrrolidin-2-yl)methyl (3′,4′-dichloro-5-methoxy-[1,1′-biphenyl]-2-yl)carbamate] stands 0.0536 µM.
